{"source": "patent US20220000818A1", "about": "“COMPOSITIONS FOR USE IN PREVENTING ACNE” (Nogra Pharma Limited, priority 2019, published 2022)", "assay_type_in_all_cases": "cell-based, human", "key": {"[1]": {"test_system": "SREBP-1, FAS, FADS-2, SCD-1, DGAT1 mRNA in SZ95 sebocytes", "experiment": "Real-time RT-PCR of lipidogenic gene mRNA in SZ95 sebocytes", "protocol": "(§1) Immortalized human SZ95 sebocytes (Zouboulis et al., 1999), showing morphologic, phenotypic, and functional characteristics of normal human sebocytes, were cultured in 5% CO2 at 37° C. in Sebomed basal medium, 1% L-glutamine, 1% penicillin/streptomycin, 5 ng/mL recombinant human epidermal growth factor, and 1 mM CaCl2, with or without 10% FBS supplement. All experiments were performed at least in triplicate.\nTotal RNA was isolated using the Aurum™ Total RNA Mini kit (Bio-Rad Laboratories Srl; Milan, Italy). Total RNA quantity, purity, and the absence of ribonuclease activity were assessed by OD260/280 absorbance measurements and by agarose gel electrophoresis. Total RNA samples were stored at −80° C. until use. Following DNAse I treatment, cDNA was synthesized using a mix of oligo-dT and random primers and RevertAid™ First Strand cDNA synthesis kit (Thermo Fisher Scientific; Monza, Italy). Quantitative real time RT-PCR was performed in a total volume of 15 μL with SYBR Green PCR Master Mix (Bio-Rad Laboratories Srl) and 200 nM concentration of each primer.\nReactions were carried out in triplicate using an iQ™ 5 iCycler supplied with the iQ™ 5 Real-Time Detection System (Bio-Rad Laboratories; Hercules, Calif., USA). Melt curve analysis was performed to confirm the specificity of the amplified products. Expression of mRNA species was normalized to the expression of GAPDH mRNA by the change in the Δ cycle threshold (ΔCt) method and calculated based on 2^−Δct.\nSZ95-S and SZ95-SF sebocytes were cultured for an additional 24 hours in the presence of 0.1 μM insulin and/or 1 mM NAC-GED0507."}, "SZ95 sebocytes [2]": {"test_system": "SZ95 sebocytes", "experiment": "Metabolic activity and cell viability of SZ95 sebocytes", "settings": "SZ95-S or SZ95-SF sebocytes exposed to NAC-GED0507", "protocol": "as §1\nSZ95-SF and SZ95-S sebocytes were cultured for an additional 24 hours in the presence of 0.1 μM insulin and/or 1 mM of the PPARγ modulator N-acetyl-(S)-3-(4′-aminophenyl)-2-methoxypropionic acid (“NAC-GED0507”)."}, "[3]": {"test_system": "PPARγ and EMA protein in SZ95-SF cells", "experiment": "Western blot of PPARγ and EMA (sebocyte differentiation) in SZ95-SF cells", "settings": "24 hours", "protocol": "as §1\n(§2) For protein extraction, cells were lysed in RIPA buffer (50 mM Tris-HCl pH 7.4, 1% Nonidet P40, 0.25% deoxycholate, 150 mM NaCl, 1 mM EDTA, 1 mM PMSF, 1 mM Na3VO4, 5 mM NaF), supplemented with a protease inhibitor cocktail (Roche, Mannheim, Germany), for 30 minutes at 4° C., then sonicated. Total cell lysates were clarified by centrifugation at 12,000 rpm for 10 minutes at 4° C. and then stored at −80° C. until analysis.\n(§3) Protein levels were measured by spectrophotometry, and protein (50 μg) was loaded and resolved using an acrylamide SDS-PAGE gel, and finally transferred onto a nitrocellulose membrane (Amersham Biosciences, Milan, Italy). Protein transfer efficiency was evaluated by Ponceau S staining (Sigma-Aldrich). […] Protein levels were quantified by measuring optical density of specific bands using a UVI-TEC System (Eppendorf, Hamburg, Germany). […]"}, "[4]": {"test_system": "IL-6 release from SZ95 sebocytes", "experiment": "IL-6 release ELISA in SZ95 sebocytes", "settings": "all sebocytes (SZ95-SF and SZ95-S), 0.1 μM insulin", "protocol": "as §1\nSZ95 culture supernatants were collected and centrifuged to remove cell debris. Aliquots were then stored at −80° C. until use. IL-6 protein level was determined by ELISA (Life Technologies, Invitrogen; Milan, Italy), and normalized for cell number. In stratum corneum specimens, concentration of IL-1α was assessed by ELISA (Life Technologies, Invitrogen, Milan, Italy), and normalized against the total amount of soluble protein. Levels of IL-1α were reported as pg/pg protein. The results represent the average of three independent experiments performed in triplicate.\nTo determine the effect of insulin exposure on inflammatory cytokine release in sebocytes at different stages of differentiation, IL-6 release was measured by ELISA following exposure of SZ95-SF and SZ95-S sebocytes to 0.1 μM insulin."}, "lipoxygenase (LOX)": {"test_system": "lipoxygenase (LOX)", "experiment": "Lipoxygenase activity assay in SZ95 sebocyte lysates", "settings": "SZ95-S and SZ95-SF cells, 0.1 μM insulin and NAC-GED0507", "protocol": "Immortalized human SZ95 sebocytes (Zouboulis et al., 1999), showing morphologic, phenotypic, and functional characteristics of normal human sebocytes, were cultured in 5% CO2 at 37° C. in Sebomed basal medium, 1% L-glutamine, 1% penicillin/streptomycin, 5 ng/mL recombinant human epidermal growth factor, and 1 mM CaCl2, with or without 10% FBS supplement. All experiments were performed at least in triplicate. Lipoxygenase (LOX) activity was evaluated spectrophotometrically by monitoring the conversion of the LOX substrate linoleic acid (LA) to the corresponding hydroperoxy fatty acid. SZ95 sebocytes were lysed in 50 mM Tris/HCl buffer (pH 7.4) (Merck; Darmstadt, Germany) by repeated freezing in liquid nitrogen and thawing. Protein content was determined by Bradford assay using bovine serum albumin as the protein standard. Aliquots of supernatants containing 50 μg of protein were added to Tris/HCl buffer containing 200 μM LA in a final volume of 1 mL. All reactions were performed in 1-cm path length quartz cuvettes. The absorbance at 234 nm was recorded at room temperature for 10 minutes using a Lambda 25 UV/Vis spectrophotometer (Perkin-Elmer, UK). SZ95 sebocytes cultured under serum and serum-free conditions were analyzed for LOX expression. SZ95-SF sebocytes expressed slightly higher basal levels of LOX compared to SZ95-S sebocytes (data not shown). […]"}, "SZ95 sebocytes [5]": {"test_system": "SZ95 sebocytes", "experiment": "GC-MS analysis of fatty acid production (lipogenesis) in SZ95 sebocytes", "settings": "insulin and NAC-GED0507, 48 hours or 72 hours", "protocol": "as §1\nLipids were extracted from SZ95 sebocytes using a modified version of the protocol described in Bligh E G and Dyer W J, J Biochem Physiol, 1959. Lipids were extracted with chloroform: methanol (2:1) solution (2×1 mL) after the addition of butylhydroxytoluene to prevent oxidation of oxygen sensitive compounds. 5 μg of methylated tricosanoic acid was added as internal standard to control the analytical performance and to calculate the relative abundance of the fatty acids detected. Organic layers were collected and evaporated under nitrogen. Dried lipid extract was dissolved in 100 μL acetone/methanol/isopropanol (40:40:20) solution and 20 μL were used for the analysis of bound fatty acids (FA).\nBound fatty acids (FA) were analyzed as FA methyl esters (FAME) obtained after derivatization. For simultaneous saponification and methylation of bound FA, 250 μL KOH solution (0.5 M) in anhydrous methanol was added to the dried extract and incubated at 37° C. for 20 minutes with constant shaking. 0.5 mL HCl (0.25 M) was added to neutralize the alkaline reaction mixture. After vortexing, 0.25 mL K2SO4 (6.7%) and 1 mL hexane:isopropanol (3:2 v/v) solution containing 0.0025% BHT were added and vortexed. After centrifugation, the lipid enriched upper phase was transferred to an Eppendorf tube and evaporated under nitrogen. The dried FAME extract was dissolved in 50 μL n-hexane and analyzed by GC-MS to establish FA profiles in the lipid extracts (Thermo-Finnigan, Waltham, Mass., USA). Chromatographic separation was carried out on a HP-FFAP capillary column (Agilent Technologies, Santa Clara, Calif., USA; crosslinked FFAP, length 50 m, film thickness 0.52 μm). Helium was used as the carrier gas. The initial GC oven temperature was 40° C. and was linearly ramped up to 240° C. at 8° C./min. The total run time was 60 min. The injector and the GC-MS transfer lines were kept at 230° C. and 250° C., respectively. Total ion chromatograms (TIC) were acquired, and areas of single peaks, corresponding to the FAME, were integrated with the qualitative analysis software. Identity of the detected FAME was verified by comparison with authentic standards and matched with library spectral data.\nSZ95-SF and SZ95-S sebocytes were also cultured for 48 hours or 72 hours in the presence of insulin and NAC-GED0507."}, "SZ95 sebocytes [6]": {"test_system": "SZ95 sebocytes", "experiment": "LC-MS analysis of 5-HETE and 15-HETE in SZ95 cell media", "settings": "SZ95-SF and SZ95-S sebocytes, insulin and NAC-GED0507", "protocol": "as §1\nLevels of the polyunsaturated fatty acids 5-hydroxyeicosatetraenoic acid (5-HETE) and 15-hydroxyeicosatetraenoic acid (15-HETE) in cell media were measured by HPLC\\MS\\MS. Chromatographic separation was carried out using an Agilent Technologies 1200 HPLC Liquid Chromatography System (Palo Alto, Calif., USA) with a Symmetry C18 column ([…], 100 mm×2.1 mm; Waters, Milford, Mass., USA) as previously reported (Furugen A et al., (2015) “Simultaneous quantification of leukotrienes and hydroxyeicosatrienoic acids in cell culture medium using liquid chromatography/tandem mass spectrometry” Biomed Chromatogr 29:1084-1093). […] For each compound to be quantified, an internal standard was selected and a linear curve was generated where the ratio of analyte standard peak area to internal standard peak area was plotted against the amount of analyte standard. The results were calculated as nM/106 cells and then reported as % variation vs control values. […]"}, "[7]": {"test_system": "pAkt and pS6 (PI3K/Akt pathway) in SZ95 sebocytes", "experiment": "Western blot of insulin-induced pAkt and pS6 in SZ95 sebocytes", "settings": "SZ95-SF cells, 0.1 μM insulin and 1 mM NAC-GED0507, 24 hours", "protocol": "as §1, §2, §3"}, "[8]": {"settings": "SZ95-SF cells, pre-treatment with NAC-GED0507"}}, "data": [{"smiles": "CO[C@@H](Cc1ccc(NC(C)=O)cc1)C(=O)O", "note": "[NAC-GED0507, N-acetyl-(S)-3-(4′-aminophenyl)-2-methoxypropionic acid]", "values": [{"measurement": "up-regulation of lipidogenic genes (SREBP-1, FAS, FADS-2, SCD-1 mRNA) observed with insulin alone", "setting": "[1]; 0.1 μM insulin and 1 mM NAC-GED0507, 24 hours", "value": "significantly inhibited"}, {"measurement": "DGAT1 mRNA levels (decreased by insulin)", "setting": "[1]; SZ95-SF cells, 0.1 μM insulin", "value": "countered the effects of insulin exposure"}, {"measurement": "insulin-stimulated FADS2 mRNA expression", "setting": "[1]; [8]", "value": "reduced the effect"}, {"measurement": "insulin-stimulated SCD1 mRNA expression", "setting": "[1]; [8]", "value": "reduced the effect"}, {"measurement": "insulin-stimulated SREBP1 mRNA expression", "setting": "[1]; [8]", "value": "reduced the effect"}, {"measurement": "cell viability", "setting": "SZ95 sebocytes [2]", "value": "No significant changes"}, {"measurement": "metabolic activity", "setting": "SZ95 sebocytes [2]", "value": "No significant changes"}, {"measurement": "EMA protein expression", "setting": "[3]", "value": "increase"}, {"measurement": "PPARγ protein expression", "setting": "[3]", "value": "increase"}, {"measurement": "IL-6 cytokine release", "setting": "[4]", "value": "significantly reduced"}, {"measurement": "insulin-induced increase in LOX activity", "setting": "lipoxygenase (LOX)", "value": "inhibited"}, {"measurement": "production of mono-unsaturated fatty acids in response to insulin", "setting": "SZ95 sebocytes [5]; SZ95-SF sebocytes", "value": "significantly inhibited"}, {"measurement": "production of poly-unsaturated fatty acids in response to insulin", "setting": "SZ95 sebocytes [5]; SZ95-SF sebocytes", "value": "significantly inhibited"}, {"measurement": "total fatty acid synthesis stimulated by insulin", "setting": "SZ95 sebocytes [5]; SZ95-SF sebocytes", "value": "significantly inhibited"}, {"measurement": "inhibition of unsaturated fatty acid production in SZ95-SF in comparison to SZ95-S sebocytes", "setting": "SZ95 sebocytes [5]", "value": "relatively more robust"}, {"measurement": "increase in 5-HETE stimulated by insulin", "setting": "SZ95 sebocytes [6]", "value": "countered the increase"}, {"measurement": "increase in 15-HETE stimulated by insulin", "setting": "SZ95 sebocytes [6]", "value": "countered the increase"}, {"measurement": "insulin-induced pAkt", "setting": "[7]", "value": "significant decrease"}, {"measurement": "insulin-induced pS6", "setting": "[7]", "value": "significant decrease"}]}]}
